Test results as given in PubChem BioAssay (NCI).
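Five compound concentrations were applied to cells in 96-well plates for 48 hours; endpoints were derived by simple linear interpolation of the resulting dose-response curve. At the GI50, growth is halved. Definition used: TGI = concentration required for complete inhibition of growth.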

Key:
Experiment in all cases: NCI tumour cell line growth inhibition, 48 h
K-562 leukemia = tested on: K-562 leukemia
PC-3 prostate = tested on: PC-3 prostate
HS 578T breast = tested on: HS 578T breast
HOP-62 NSCLC = tested on: HOP-62 NSCLC
SK-OV-3 ovarian = tested on: SK-OV-3 ovarian
BT-549 breast = tested on: BT-549 breast
A498 renal = tested on: A498 renal
DU-145 prostate = tested on: DU-145 prostate
SK-MEL-2 melanoma = tested on: SK-MEL-2 melanoma
KM12 colon = tested on: KM12 colon

In the case of `CC(=O)O[C@H]1C(=O)[C@]2(C)[C@@H](OC(=O)OCC(O)CO)C[C@H]3OC[C@@]3(OC(C)=O)[C@H]2[C@H](OC(=O)c2ccccc2)[C@]2(O)C[C@H](OC(=O)[C@H](O)[C@@H](NC(=O)c3ccccc3)c3ccccc3)C(C)=C1C2(C)C` (stereo not given in full), the TGI (K-562 leukemia) is reported as greater than 100 µM, the TGI (PC-3 prostate) is reported as greater than 70.8 µM and the TGI (HS 578T breast) is reported as less than 0.01 µM. The TGI (HOP-62 NSCLC) was 13.7 µM, the TGI (SK-OV-3 ovarian) was greater than 100 µM and the TGI (BT-549 breast) was 22.9 µM.

Compound `CC(C)(C)CC(C)(C)Cc1ccc(OCCOCC[N+](C)(C)Cc2ccccc2)cc1` has a GI50 (K-562 leukemia) of 966 nM, a TGI (K-562 leukemia) of 3.57 µM and a GI50 (A498 renal) of 2080 nM. For the same compound, the TGI (A498 renal) was 9.38 µM, the GI50 (HS 578T breast) was 2030 nM and the TGI (HS 578T breast) was 4.75 µM. It also gave a GI50 (DU-145 prostate) of 3680 nM, a TGI (DU-145 prostate) of 13.8 µM and a GI50 (HOP-62 NSCLC) of 2310 nM. For the same compound, the TGI (HOP-62 NSCLC) was 6.73 µM, the GI50 (SK-OV-3 ovarian) was 2.71 µM and the TGI (SK-OV-3 ovarian) was 12.4 µM.

For `O=C(CCN1CCCC1)Nc1ccc2c(NCCCCc3ccccc3)c3ccccc3nc2c1`, the GI50 (SK-MEL-2 melanoma) was 1760 nM, the TGI (SK-MEL-2 melanoma) was 3.34 µM and the GI50 (PC-3 prostate) was 723 nM. It also gave a TGI (PC-3 prostate) of 2.09 µM, a GI50 (A498 renal) of 1430 nM and a TGI (A498 renal) of 2.82 µM. The GI50 (DU-145 prostate) was 1150 nM, the TGI (DU-145 prostate) was 2.39 µM and the GI50 (KM12 colon) was 1330 nM. The TGI (KM12 colon) was 2.74 µM.

Compound `COc1cc(-c2ccc(-c3ccc(C(=N)N)s3)s2)cc(OC)c1OC` has a GI50 (K-562 leukemia) of 1110 nM, a TGI (K-562 leukemia) of 3.41 µM and a GI50 (A498 renal) of 2250 nM. The TGI (A498 renal) was 5.83 µM, the GI50 (DU-145 prostate) was 2320 nM and the TGI (DU-145 prostate) was 5.83 µM. For the same compound, the GI50 (HOP-62 NSCLC) was 1970 nM, the TGI (HOP-62 NSCLC) was 3.97 µM and the GI50 (SK-OV-3 ovarian) was 5.15 µM. For the same compound, the TGI (SK-OV-3 ovarian) was 18.8 µM.

With `N#Cc1ccc(Nc2nc3nc[nH]c3c(=O)[nH]2)cc1` the TGI (SK-MEL-2 melanoma) was greater than 100 µM, the TGI (PC-3 prostate) was greater than 100 µM and the TGI (A498 renal) was greater than 100 µM. For the same compound, the TGI (HS 578T breast) was greater than 100 µM, the TGI (DU-145 prostate) was greater than 100 µM and the TGI (HOP-62 NSCLC) was greater than 100 µM. It also gave a TGI (SK-OV-3 ovarian) greater than 100 µM, a TGI (KM12 colon) greater than 100 µM and a TGI (BT-549 breast) greater than 100 µM.

Work on `NC(=O)c1cc2ccccc2c(N=Nc2ccccc2)c1O` yielded a TGI (K-562 leukemia) greater than 100 µM, a TGI (SK-MEL-2 melanoma) greater than 100 µM and a TGI (PC-3 prostate) greater than 100 µM. For the same compound, the TGI (A498 renal) was greater than 100 µM, the TGI (HS 578T breast) was greater than 100 µM and the TGI (DU-145 prostate) was greater than 100 µM. The TGI (HOP-62 NSCLC) was greater than 100 µM, the TGI (SK-OV-3 ovarian) was greater than 100 µM and the TGI (KM12 colon) was greater than 100 µM. The TGI (BT-549 breast) was greater than 100 µM.

In the case of `CN1CCN(c2ccc3nc(-c4ccc(OCCCN5C(=O)c6cccc7cccc(c67)C5=O)cc4)[nH]c3c2)CC1`, the GI50 (K-562 leukemia) is reported as 889 nM, the TGI (K-562 leukemia) is reported as 4.54 µM and the GI50 (SK-MEL-2 melanoma) is reported as 25200 nM. It also gave a TGI (SK-MEL-2 melanoma) of 62.4 µM, a GI50 (PC-3 prostate) of 2040 nM and a TGI (PC-3 prostate) of 4.95 µM. The GI50 (A498 renal) was 24100 nM, the TGI (A498 renal) was 50.4 µM and the GI50 (HS 578T breast) was 2110 nM. It also gave a TGI (HS 578T breast) of 4.6 µM, a GI50 (SK-OV-3 ovarian) of 10.8 µM and a TGI (SK-OV-3 ovarian) of 37.5 µM. For the same compound, the GI50 (BT-549 breast) was 2660 nM and the TGI (BT-549 breast) was 6.13 µM.

`Cc1c2cc[n+](C)cc2c(COC2OC(CO)C(O)C2O)c2c3ccccc3n(C)c12` (stereo not given) was tested, and the TGI (K-562 leukemia) was greater than 100 µM, the TGI (SK-MEL-2 melanoma) was greater than 100 µM and the TGI (A498 renal) was greater than 100 µM. It also gave a TGI (HOP-62 NSCLC) greater than 74.2 µM, a TGI (SK-OV-3 ovarian) of 99.1 µM and a TGI (KM12 colon) greater than 100 µM.

Compound `Cc1c2cc[n+](C)cc2c(C)c2c1[nH]c1ccc(O)cc12` has a TGI (K-562 leukemia) greater than 82.1 µM, a TGI (SK-MEL-2 melanoma) greater than 96.9 µM and a TGI (PC-3 prostate) greater than 100 µM. The TGI (A498 renal) was 99.4 µM, the TGI (HS 578T breast) was 5.7 µM and the TGI (DU-145 prostate) was 74.7 µM. For the same compound, the TGI (HOP-62 NSCLC) was 35 µM, the TGI (SK-OV-3 ovarian) was greater than 100 µM and the TGI (KM12 colon) was greater than 86.9 µM. For the same compound, the TGI (BT-549 breast) was 71.1 µM.

`CCP(=O)(CC)C(Cl)(Cl)C(=O)NC` gave a TGI (K-562 leukemia) greater than 100 µM, a TGI (SK-MEL-2 melanoma) greater than 100 µM and a TGI (PC-3 prostate) greater than 100 µM. It also gave a TGI (HS 578T breast) greater than 100 µM, a TGI (DU-145 prostate) greater than 100 µM and a TGI (HOP-62 NSCLC) greater than 100 µM. It also gave a TGI (SK-OV-3 ovarian) greater than 100 µM.

`C[Si](C)(C)C#C[I+]c1ccccc1` gave a TGI (K-562 leukemia) greater than 100 µM, a TGI (SK-MEL-2 melanoma) greater than 100 µM and a TGI (A498 renal) greater than 100 µM. The TGI (HOP-62 NSCLC) was greater than 100 µM, the TGI (SK-OV-3 ovarian) was greater than 100 µM and the TGI (KM12 colon) was greater than 100 µM.

Compound `COc1cccc2c1C(=O)c1c(O)c3c(c(O)c1C2=O)C[C@@](O)(C(C)=O)C[C@@H]3OC1CC(N)C(O)C(C)O1` (stereo not given in full) has a GI50 (K-562 leukemia) of less than 10 nM, a GI50 (SK-MEL-2 melanoma) of 122 nM and a GI50 (HOP-62 NSCLC) of less than 12.7 nM. The GI50 (SK-OV-3 ovarian) was 0.0189 µM, the GI50 (KM12 colon) was 44.3 nM and the GI50 (BT-549 breast) was 48.2 nM.

Work on `CCOC(=O)c1c(NC(=S)NCc2ccccc2)sc2c1CCN(C)C2` yielded a TGI (K-562 leukemia) of 46.1 µM, a TGI (SK-MEL-2 melanoma) greater than 100 µM and a TGI (PC-3 prostate) greater than 100 µM. It also gave a TGI (A498 renal) greater than 100 µM, a TGI (HS 578T breast) greater than 100 µM and a TGI (DU-145 prostate) greater than 100 µM. It also gave a TGI (HOP-62 NSCLC) greater than 100 µM, a TGI (KM12 colon) greater than 100 µM and a TGI (BT-549 breast) greater than 100 µM.
